From ChEMBL document CHEMBL1201862, “PubChem BioAssay data set” (2004)
The source made the active and inactive calls.

Tests used:
Cytochrome P450 1A2 = biological target: T1, Cytochrome P450 1A2 (Homo sapiens, UniProt P05177);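 further: PubChem cytochrome P450 panel assay, CYP1A2 panel member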
T1 sequence (P05177 whole entry): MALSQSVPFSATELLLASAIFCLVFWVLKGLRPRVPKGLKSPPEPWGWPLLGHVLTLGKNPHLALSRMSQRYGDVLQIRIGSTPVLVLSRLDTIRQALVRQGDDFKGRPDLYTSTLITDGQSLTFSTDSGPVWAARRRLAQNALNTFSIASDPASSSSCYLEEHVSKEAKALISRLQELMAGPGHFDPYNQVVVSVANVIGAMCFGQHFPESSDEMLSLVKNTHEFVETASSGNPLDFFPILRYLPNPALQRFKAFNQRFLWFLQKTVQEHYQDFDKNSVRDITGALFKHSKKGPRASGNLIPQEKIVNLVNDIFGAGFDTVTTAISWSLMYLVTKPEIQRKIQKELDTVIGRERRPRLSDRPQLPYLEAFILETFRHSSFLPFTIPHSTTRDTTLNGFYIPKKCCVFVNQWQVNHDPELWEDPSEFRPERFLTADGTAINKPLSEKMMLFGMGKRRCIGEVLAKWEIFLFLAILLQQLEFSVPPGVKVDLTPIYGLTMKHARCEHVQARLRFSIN

[1] = biological target: T2, Delta-type opioid receptor (Homo sapiens, UniProt P41143); assay: HTS Image-Based Screen for Agonists of the DOR Receptor. [Related pubchem assays (depositor defined):AID1777, AID1786, AID2133]; format: functional
[2] = biological target: T3, Kappa-type opioid receptor (Homo sapiens, UniProt P41145); format: functional
Beta-galactosidase = Beta-galactosidase (Escherichia coli, UniProt Q8VNN2); format: functional
[3] = biological target: T2, Delta-type opioid receptor; assay: HTS Image-Based Screen for Antagonists of the DOR Receptor. [Related pubchem assays (depositor defined):AID1777, AID1785, AID1786, AID2133]; format: functional
[4] = viability of uninfected HEp-2 cells – cell-based, HTS, cytotoxicity control for RSV inhibitor project, dose response (AID 2410); format: functional; details: human respiratory syncytial virus
Mu-type opioid receptor = Mu-type opioid receptor (Homo sapiens, UniProt P35372); assay: HTS Image-Based Screen for Agonists of the MOR Receptor. [Related pubchem assays (depositor defined):AID1777, AID1785, AID1786, AID2133]; format: functional;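 further: imaging of beta-arrestin GFP recruitment into spots after receptor activation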
[5] = biological target: T3, Kappa-type opioid receptor; format: functional; remark: listed apart in the source
[6] = biological target: T4, Mannose-6-phosphate isomerase (Homo sapiens, UniProt P34949); assay: phosphomannose isomerase inhibition – biochemical, fluorescence intensity, confirmation (AID 1535)
T4 sequence (P34949 whole entry): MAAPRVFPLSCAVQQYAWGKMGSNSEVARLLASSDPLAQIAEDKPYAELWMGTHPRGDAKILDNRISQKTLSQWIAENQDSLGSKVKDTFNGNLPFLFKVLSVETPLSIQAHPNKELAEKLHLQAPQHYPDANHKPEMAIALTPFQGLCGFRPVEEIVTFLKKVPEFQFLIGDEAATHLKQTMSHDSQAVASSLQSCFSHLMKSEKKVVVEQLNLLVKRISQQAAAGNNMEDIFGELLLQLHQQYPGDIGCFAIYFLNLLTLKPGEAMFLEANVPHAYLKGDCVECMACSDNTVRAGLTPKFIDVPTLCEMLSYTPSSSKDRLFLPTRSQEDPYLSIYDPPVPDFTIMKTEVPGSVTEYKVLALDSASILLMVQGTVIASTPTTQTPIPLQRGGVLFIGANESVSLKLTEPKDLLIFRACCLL

Phosphomannomutase 2 = Phosphomannomutase 2 (Homo sapiens, UniProt O15305); assay: Counter screen SAR assay for PMM2 inhibitors via a fluorescence intensity assay. [Related pubchem assays (depositor defined):AID1545, AID1574]
[7] = biological target: Nucleotide-binding oligomerization domain-containing protein 2 (Homo sapiens, UniProt Q9HC29); assay: inhibition of NOD2-driven NF-kB reporter – cell-based, luminescence, uHTS, HEK293 (AID 1566); format: functional
HEK293 [8] = assay: cells; format: functional, cell-based; details: Homo sapiens
Exodeoxyribonuclease V = Exodeoxyribonuclease V (Escherichia coli (strain K12), UniProt P04993+P07648+P08394); assay: RecBCD inhibition via phage-restricted bacterial growth – absorbance, V66 E. coli, mutant T4 phage, counter-screen for AddAB inhibitor project, dose response (AID 492957); format: functional, cell-based, Escherichia coli str. K-12 substr. MG1655
HEK293 [9] = assay: cells; format: functional, cell-based; details: Homo sapiens; remark: listed apart in the source
HEK293 [10] = assay: inhibition of NOD1-driven NF-kB reporter – cell-based, luminescence, uHTS, primary screen (AID 1578); format: functional; details: Homo sapiens
cells = format: functional
[11] = THP-1 cell cytotoxicity, dose response, cytotoxicity control for non-replicating M. tuberculosis project (AID 489025); format: functional
[12] = Counterscreen for AddAB inhibitors: absorbance-based bacterial cell-based high throughput dose response assay for inhibitors of bacterial viability. [Related pubchem assays (depositor defined):AID435030, AID449728, AID449731, AID488942, AID488955, AID488956]; format: functional
HEK293 [13] = assay: cells; format: functional, cell-based; details: Homo sapiens; remark: listed apart in the source
HEK293 [14] = assay: NOD2 signaling inhibitors in MDP-stimulated cells, cell-based, uHTS, luminescence (AID 2001); format: functional; details: Homo sapiens
[15] = biological target: T5, Tyrosine-protein phosphatase non-receptor type 22 (Homo sapiens, UniProt Q9Y2R2); format: functional
T5 sequence (Q9Y2R2 whole entry): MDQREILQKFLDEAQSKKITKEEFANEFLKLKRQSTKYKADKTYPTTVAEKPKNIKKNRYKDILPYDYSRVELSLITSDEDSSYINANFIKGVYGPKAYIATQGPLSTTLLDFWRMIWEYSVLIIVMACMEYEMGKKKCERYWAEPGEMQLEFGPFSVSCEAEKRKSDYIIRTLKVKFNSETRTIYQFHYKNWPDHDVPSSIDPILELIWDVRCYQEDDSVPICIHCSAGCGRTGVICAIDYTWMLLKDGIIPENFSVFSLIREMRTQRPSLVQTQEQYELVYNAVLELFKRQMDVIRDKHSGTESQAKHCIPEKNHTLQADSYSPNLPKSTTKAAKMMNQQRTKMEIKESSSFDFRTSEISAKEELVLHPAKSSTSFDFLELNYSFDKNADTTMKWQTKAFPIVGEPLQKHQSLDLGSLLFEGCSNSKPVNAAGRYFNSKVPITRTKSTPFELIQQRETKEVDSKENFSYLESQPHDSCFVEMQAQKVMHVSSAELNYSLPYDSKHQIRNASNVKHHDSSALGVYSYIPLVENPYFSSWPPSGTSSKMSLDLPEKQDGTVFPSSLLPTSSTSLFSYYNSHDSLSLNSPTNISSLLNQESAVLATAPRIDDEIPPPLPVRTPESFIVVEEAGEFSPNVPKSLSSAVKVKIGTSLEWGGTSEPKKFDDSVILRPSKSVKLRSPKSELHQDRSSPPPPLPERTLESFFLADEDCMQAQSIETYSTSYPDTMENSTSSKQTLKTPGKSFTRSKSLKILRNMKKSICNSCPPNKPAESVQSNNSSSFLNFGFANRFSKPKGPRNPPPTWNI

Hexokinase-1 = biological target: T6, Hexokinase-1 (Homo sapiens, UniProt P19367); assay: HK1 enzyme activation by HKDC1 hits – biochemical, selectivity assay for HKDC1 activator project, dose response (AID 504762); format: functional
T6 sequence (P19367 whole entry): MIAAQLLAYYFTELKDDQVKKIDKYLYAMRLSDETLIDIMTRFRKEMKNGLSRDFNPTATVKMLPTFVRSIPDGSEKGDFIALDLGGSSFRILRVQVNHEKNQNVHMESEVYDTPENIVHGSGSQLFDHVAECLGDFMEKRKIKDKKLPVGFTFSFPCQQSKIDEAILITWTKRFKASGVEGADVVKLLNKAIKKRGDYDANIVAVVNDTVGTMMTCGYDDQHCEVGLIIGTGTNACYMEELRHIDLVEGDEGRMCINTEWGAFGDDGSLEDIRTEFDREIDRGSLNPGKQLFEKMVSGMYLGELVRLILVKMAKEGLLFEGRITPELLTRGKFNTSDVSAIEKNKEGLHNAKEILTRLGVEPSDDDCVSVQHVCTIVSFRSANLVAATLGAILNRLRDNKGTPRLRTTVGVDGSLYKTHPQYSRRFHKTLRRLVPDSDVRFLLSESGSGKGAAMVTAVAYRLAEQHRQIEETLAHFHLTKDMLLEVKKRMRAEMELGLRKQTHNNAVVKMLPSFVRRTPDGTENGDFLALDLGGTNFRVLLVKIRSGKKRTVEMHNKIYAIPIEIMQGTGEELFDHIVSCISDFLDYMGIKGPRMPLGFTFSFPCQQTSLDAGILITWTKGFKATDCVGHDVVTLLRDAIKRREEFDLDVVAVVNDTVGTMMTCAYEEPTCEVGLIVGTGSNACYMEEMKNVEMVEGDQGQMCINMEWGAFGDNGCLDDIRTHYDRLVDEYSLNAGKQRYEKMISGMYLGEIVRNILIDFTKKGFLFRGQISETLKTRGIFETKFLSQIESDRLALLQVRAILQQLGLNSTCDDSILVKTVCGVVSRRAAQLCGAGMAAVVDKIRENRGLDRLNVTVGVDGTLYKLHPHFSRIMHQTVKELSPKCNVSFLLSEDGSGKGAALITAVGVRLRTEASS

Hexokinase HKDC1 = biological target: T7, Hexokinase HKDC1 (Homo sapiens, UniProt Q2TB90); assay: activation of HKDC1 glucose phosphorylation – biochemical, W721R variant, dose response (AID 504730); format: functional
T7 sequence (Q2TB90 whole entry): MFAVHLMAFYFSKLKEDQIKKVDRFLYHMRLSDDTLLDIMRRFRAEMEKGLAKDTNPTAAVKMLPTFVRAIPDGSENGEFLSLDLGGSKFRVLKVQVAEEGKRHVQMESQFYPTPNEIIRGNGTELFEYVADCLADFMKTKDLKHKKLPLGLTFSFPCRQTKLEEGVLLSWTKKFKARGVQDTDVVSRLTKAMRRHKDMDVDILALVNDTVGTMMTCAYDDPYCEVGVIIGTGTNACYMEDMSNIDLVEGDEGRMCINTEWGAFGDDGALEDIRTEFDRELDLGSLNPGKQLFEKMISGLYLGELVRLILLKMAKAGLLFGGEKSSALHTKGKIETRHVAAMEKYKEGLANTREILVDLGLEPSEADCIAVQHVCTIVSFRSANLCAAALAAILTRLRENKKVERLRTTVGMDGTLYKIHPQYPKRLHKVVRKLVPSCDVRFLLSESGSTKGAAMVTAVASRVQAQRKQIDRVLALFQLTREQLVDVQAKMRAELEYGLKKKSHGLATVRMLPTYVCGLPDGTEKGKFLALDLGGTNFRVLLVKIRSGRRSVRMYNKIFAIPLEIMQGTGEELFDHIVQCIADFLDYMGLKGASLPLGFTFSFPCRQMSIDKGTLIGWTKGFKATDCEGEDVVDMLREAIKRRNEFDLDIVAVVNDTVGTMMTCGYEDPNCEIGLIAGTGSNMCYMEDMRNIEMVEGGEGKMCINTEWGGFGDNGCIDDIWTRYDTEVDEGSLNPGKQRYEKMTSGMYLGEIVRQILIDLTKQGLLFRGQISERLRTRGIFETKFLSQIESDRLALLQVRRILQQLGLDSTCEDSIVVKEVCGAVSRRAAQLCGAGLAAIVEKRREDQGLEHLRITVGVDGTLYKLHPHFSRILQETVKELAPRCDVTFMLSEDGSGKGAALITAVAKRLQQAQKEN

[16] = biological target: T8, Tyrosine-protein phosphatase non-receptor type 7 (Homo sapiens, UniProt P35236); format: functional
T8 sequence (P35236 whole entry): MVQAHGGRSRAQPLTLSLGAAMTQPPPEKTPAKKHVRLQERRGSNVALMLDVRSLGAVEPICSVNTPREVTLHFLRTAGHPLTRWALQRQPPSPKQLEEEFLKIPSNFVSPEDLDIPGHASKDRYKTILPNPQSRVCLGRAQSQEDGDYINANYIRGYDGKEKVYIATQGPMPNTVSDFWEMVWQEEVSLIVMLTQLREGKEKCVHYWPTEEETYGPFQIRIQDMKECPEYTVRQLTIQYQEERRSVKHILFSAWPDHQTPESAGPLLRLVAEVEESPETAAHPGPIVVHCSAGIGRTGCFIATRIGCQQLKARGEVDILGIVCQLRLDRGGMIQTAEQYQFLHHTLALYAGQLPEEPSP

[17] = biological target: T5, Tyrosine-protein phosphatase non-receptor type 22; format: functional; remark: listed apart in the source

T3 sequence (P41145 whole entry): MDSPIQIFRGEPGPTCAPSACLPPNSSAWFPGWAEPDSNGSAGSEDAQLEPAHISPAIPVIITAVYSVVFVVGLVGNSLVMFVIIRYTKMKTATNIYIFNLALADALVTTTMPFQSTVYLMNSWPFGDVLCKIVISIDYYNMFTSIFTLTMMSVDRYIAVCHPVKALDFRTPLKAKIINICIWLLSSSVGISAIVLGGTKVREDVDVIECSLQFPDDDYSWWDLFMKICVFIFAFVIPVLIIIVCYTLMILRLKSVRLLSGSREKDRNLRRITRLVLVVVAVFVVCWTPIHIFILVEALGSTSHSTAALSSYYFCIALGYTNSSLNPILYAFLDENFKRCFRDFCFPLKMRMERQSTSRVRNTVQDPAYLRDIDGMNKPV
T2 sequence (P41143 whole entry): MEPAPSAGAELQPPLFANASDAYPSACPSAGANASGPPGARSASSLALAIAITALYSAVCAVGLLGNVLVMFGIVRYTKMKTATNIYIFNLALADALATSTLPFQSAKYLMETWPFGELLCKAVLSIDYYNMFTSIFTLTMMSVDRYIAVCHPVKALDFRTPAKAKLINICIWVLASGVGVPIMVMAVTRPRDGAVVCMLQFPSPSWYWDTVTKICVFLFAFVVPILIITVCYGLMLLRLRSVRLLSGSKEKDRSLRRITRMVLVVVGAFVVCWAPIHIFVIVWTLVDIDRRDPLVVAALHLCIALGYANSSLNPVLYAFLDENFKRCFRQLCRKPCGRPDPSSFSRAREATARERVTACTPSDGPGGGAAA
Phosphomannomutase 2, sequence (O15305 whole entry, the tested form may be a part): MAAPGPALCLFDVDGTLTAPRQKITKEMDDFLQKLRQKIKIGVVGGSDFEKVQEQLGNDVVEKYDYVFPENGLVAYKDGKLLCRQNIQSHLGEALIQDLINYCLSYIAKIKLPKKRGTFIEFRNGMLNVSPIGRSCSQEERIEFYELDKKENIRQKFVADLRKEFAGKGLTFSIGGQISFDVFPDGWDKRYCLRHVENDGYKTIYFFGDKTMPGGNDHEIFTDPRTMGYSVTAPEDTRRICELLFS
Mu-type opioid receptor, sequence (P35372 whole entry): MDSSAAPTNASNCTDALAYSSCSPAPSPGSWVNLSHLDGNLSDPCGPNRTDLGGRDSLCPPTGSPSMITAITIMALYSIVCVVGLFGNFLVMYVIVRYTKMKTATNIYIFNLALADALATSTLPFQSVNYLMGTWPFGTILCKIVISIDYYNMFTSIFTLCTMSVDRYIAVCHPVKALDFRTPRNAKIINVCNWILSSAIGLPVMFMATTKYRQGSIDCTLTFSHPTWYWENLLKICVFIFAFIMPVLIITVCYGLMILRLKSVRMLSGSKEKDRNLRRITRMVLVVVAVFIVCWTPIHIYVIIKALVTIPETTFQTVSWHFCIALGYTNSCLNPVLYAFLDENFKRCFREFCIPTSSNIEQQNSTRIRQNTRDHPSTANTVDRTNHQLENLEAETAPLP
Nucleotide-binding oligomerization domain-containing protein 2, sequence (Q9HC29 whole entry, the tested form may be a part): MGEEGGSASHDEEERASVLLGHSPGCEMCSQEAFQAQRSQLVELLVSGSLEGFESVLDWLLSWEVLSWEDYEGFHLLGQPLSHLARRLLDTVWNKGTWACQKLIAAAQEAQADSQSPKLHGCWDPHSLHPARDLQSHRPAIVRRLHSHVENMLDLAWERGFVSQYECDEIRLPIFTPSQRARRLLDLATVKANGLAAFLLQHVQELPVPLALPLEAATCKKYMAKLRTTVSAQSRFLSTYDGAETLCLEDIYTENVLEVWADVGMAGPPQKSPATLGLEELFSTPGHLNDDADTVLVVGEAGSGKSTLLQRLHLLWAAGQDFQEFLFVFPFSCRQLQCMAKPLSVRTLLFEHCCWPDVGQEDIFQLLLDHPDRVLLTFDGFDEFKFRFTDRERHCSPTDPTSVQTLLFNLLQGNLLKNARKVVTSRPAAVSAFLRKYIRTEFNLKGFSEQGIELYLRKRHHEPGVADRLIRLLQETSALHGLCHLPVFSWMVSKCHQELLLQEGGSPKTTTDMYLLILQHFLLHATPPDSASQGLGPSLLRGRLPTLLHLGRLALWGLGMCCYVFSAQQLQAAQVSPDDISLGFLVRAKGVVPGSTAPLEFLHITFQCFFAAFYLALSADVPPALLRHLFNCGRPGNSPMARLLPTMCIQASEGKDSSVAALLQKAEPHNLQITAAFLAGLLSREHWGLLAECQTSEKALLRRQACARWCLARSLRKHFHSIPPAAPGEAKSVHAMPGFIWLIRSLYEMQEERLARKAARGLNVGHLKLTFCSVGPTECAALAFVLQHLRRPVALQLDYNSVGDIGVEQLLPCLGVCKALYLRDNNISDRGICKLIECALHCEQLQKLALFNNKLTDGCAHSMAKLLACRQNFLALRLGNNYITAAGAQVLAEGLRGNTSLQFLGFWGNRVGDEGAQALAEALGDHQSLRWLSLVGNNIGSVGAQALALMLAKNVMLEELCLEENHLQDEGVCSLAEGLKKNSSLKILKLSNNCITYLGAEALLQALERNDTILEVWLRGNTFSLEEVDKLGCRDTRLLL
Beta-galactosidase, sequence (Q8VNN2 whole entry): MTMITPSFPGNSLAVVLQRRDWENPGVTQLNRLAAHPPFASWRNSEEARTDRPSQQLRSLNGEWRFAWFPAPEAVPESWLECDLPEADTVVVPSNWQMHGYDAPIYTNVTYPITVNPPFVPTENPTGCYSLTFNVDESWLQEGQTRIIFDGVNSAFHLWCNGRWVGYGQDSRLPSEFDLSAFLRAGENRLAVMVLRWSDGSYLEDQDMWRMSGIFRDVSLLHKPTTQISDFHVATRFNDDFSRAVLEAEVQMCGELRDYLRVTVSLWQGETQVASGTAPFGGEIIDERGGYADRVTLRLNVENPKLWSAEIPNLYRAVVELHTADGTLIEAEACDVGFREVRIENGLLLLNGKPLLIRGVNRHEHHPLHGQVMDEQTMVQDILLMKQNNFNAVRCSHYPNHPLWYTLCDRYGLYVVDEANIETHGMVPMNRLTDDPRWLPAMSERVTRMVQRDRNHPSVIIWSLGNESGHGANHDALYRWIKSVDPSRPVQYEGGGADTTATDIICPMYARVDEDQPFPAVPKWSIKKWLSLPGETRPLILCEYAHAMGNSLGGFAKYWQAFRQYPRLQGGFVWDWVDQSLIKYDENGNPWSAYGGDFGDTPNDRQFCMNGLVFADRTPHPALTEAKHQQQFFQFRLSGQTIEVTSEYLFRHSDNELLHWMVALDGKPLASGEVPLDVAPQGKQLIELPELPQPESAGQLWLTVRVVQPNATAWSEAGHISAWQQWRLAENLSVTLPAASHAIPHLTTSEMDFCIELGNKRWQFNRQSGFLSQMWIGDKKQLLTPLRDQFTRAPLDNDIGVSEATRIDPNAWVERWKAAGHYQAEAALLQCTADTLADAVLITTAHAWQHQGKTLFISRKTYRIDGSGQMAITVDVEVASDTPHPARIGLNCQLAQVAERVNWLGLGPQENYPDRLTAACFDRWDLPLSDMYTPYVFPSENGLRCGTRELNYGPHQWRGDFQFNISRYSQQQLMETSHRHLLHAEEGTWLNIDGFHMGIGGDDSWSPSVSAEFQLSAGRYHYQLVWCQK

N[C@H]1[C@@H](C(=O)O)[C@H]2C=C[C@H]1C2.O=S(=O)(O)c1ccccc1
AC50 (Cytochrome P450 1A2): inactive

Nc1c2c(nc3sc4c(c13)CCCC4)CCCC2
EC50 [1]: > 32 µM (inactive)
IC50 [2]: 6.99 µM
EC50 (Beta-galactosidase): > 31.5 µM (inactive)
IC50 [3]: > 32 µM (inactive)
CC50 [4]: 25.7 µM (active)
EC50 (Mu-type opioid receptor): > 32 µM (inactive)
IC50 [5]: 9.82 µM (active)

CCc1cc(CC)c(/N=c2\ssnc2Cl)c(CC)c1
IC50 [6]: > 100 µM (inactive)
IC50 (Phosphomannomutase 2): > 100 µM (inactive)

Nc1nonc1C(=O)N/N=C/c1ccc([N+](=O)[O-])o1
EC50 [7]: 5.54 µM (active)
IC50 (HEK293 [8]): > 20 µM (inactive)
IC50 (Exodeoxyribonuclease V): 56.4 µM (inactive)
IC50 (HEK293 [9]): > 20 µM (inactive)
EC50 (HEK293 [10]): 8.5 µM (active)
IC50 (cells): 7.01 µM (active)
CC50 [11]: > 40 µM (active)
IC50 [12]: 14.9 µM (inactive)
IC50 (HEK293 [13]): > 20 µM (inactive)
IC50 (HEK293 [14]): > 20 µM (inactive)

COc1cc(SC#N)ccc1/N=C/c1c(C)[nH]n(-c2ccc(Cl)cc2)c1=O
IC50 [15]: > 79.4 µM (inactive)
EC50 (Hexokinase-1): > 80 µM (inactive)
EC50 (Hexokinase HKDC1): > 80 µM (inactive)
IC50 [16]: > 79.4 µM (inactive)
IC50 [17]: > 79.4 µM (inactive)
